Data on eight compounds can be found in ChEMBL document CHEMBL1201862, “PubChem BioAssay data set” (2004).

Among the test systems are HCT-116; A498; NCI-H23; MOLT-4; SW-620; UACC-257; UO-31; OVCAR-4; NCI-H226; OVCAR-8; EKVX; NCI-H522; ACHN; Hs-578T; U-251; NCI/ADR-RES; 786-0; DU-145; NCI-H460; SF-539.
Assay in all cases: inhibition of tumour cell growth, NCI panel, 48 h

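48-hour exposure; five concentrations; linearly interpolated endpoints. At the GI50, growth is halved.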 The source made the active and inactive calls. Rule as the data show it: active = GI50 up to about 1.1 µM and inactive = higher.

Regarding `CC1CCCN(CC(O)CN2CCCc3ccccc32)C1` (stereo not given), the GI50 with HCT-116, with A498, with NCI-H23, in the experiment on MOLT-4, in the experiment with SW-620 and in the experiment on UACC-257 was > 100 µM (inactive) throughout. Besides, the GI50 in the experiment on UO-31 was 76 µM (inactive); with OVCAR-4, > 100 µM (inactive); in the experiment on NCI-H226 it was > 100 µM (inactive); in the experiment on OVCAR-8 it was > 100 µM (inactive); in the experiment with EKVX, > 100 µM (inactive); in the experiment with NCI-H522 it was 64.4 µM (inactive). In addition, the GI50 with ACHN was > 100 µM (inactive); with Hs-578T it was 56.2 µM (inactive); in the experiment with U-251 it was > 100 µM (inactive); in the experiment with NCI/ADR-RES, > 100 µM (inactive); with 786-0, > 100 µM (inactive); with DU-145 it was > 100 µM (inactive).
As for `CC1OC(OC2C(OC(=O)[C@]34CCC(C)(C)C[C@H]3C3=CC[C@@H]5[C@@]6(C)CC[C@H](OC7OC(C(=O)O)C(O)C(O)C7O)C(C)(C)[C@@H]6CC[C@@]5(C)[C@]3(C)C[C@H]4O)OCC(O)C2O)C(O)C(O)C1OC1OCC(OC2OCC(O)C(O)C2O)C(O)C1O` (stereo not given in full), the GI50 in the experiment on HCT-116 is 4.66 µM (inactive); with A498, 1.48 µM (inactive); in the experiment on NCI-H23, 2.14 µM (inactive); with MOLT-4, 14.8 µM (inactive); in the experiment with SW-620, 10.9 µM (inactive); in the experiment with UACC-257, 8.63 µM (inactive). Besides, the GI50 with UO-31 is 2.13 µM (inactive); with OVCAR-4, 5.32 µM (inactive); in the experiment with NCI-H226, 6.92 µM (inactive); in the experiment on OVCAR-8 it was 15.9 µM (inactive); with EKVX, 4.16 µM (inactive); with NCI-H522, 4.94 µM (inactive). The GI50 with ACHN was 4.72 µM (inactive); with Hs-578T it was 19.1 µM (inactive); in the experiment on NCI-H460, 16.4 µM (inactive); in the experiment on U-251 it was 7.85 µM (inactive); in the experiment with NCI/ADR-RES, 11.1 µM (inactive); in the experiment on 786-0 it was 11.1 µM (inactive). Besides, the GI50 in the experiment with DU-145 was 11.3 µM (inactive).
For `C=C[C@@]1(O)CCCC[C@@H]1CC(Sc1ccccc1)Sc1ccccc1`, the GI50 is 15.6 µM (inactive) in the experiment with HCT-116; 24.4 µM (inactive) in the experiment on A498; 17.2 µM (inactive) with NCI-H23; 31.1 µM (inactive) in the experiment with MOLT-4; 17.4 µM (inactive) with UACC-257; 17.2 µM (inactive) in the experiment with UO-31. For the same compound, the GI50 with OVCAR-4 was 16.9 µM (inactive); in the experiment with NCI-H226 it was 21.8 µM (inactive); in the experiment on OVCAR-8, 17.9 µM (inactive); in the experiment on EKVX, 15.3 µM (inactive); in the experiment with NCI-H522 it was 13.4 µM (inactive); in the experiment with ACHN, 67.5 µM (inactive). Further, the GI50 in the experiment with Hs-578T was 15.5 µM (inactive); with NCI-H460, 13.4 µM (inactive); in the experiment with U-251, 16.7 µM (inactive); with NCI/ADR-RES, 19.8 µM (inactive); in the experiment on 786-0 it was 22.2 µM (inactive); in the experiment with DU-145 it was 17.7 µM (inactive).
In the case of `CCc1cccc2c3c([nH]c12)-c1ccccc1NC(=O)C3`, the GI50 with A498 was 19.5 µM (inactive); with NCI-H23, > 100 µM (inactive); with MOLT-4, 8.89 µM (inactive); in the experiment on SW-620 it was > 100 µM (inactive); in the experiment with UACC-257 it was > 100 µM (inactive); with UO-31, > 100 µM (inactive). The GI50 in the experiment with NCI-H226 was 14.1 µM (inactive); in the experiment on OVCAR-8, > 100 µM (inactive); in the experiment with EKVX, > 100 µM (inactive); with Hs-578T it was 30.7 µM (inactive); in the experiment with NCI-H460, > 100 µM (inactive); in the experiment on U-251, > 100 µM (inactive). The GI50 with NCI/ADR-RES, in the experiment with 786-0 and in the experiment on DU-145 was > 100 µM (inactive) throughout.
Consider `CC1CCC(O)(C(C)(C(=O)O)c2ccccc2)CC1` (stereo not given), for which the GI50 is > 100 µM (inactive) with HCT-116; 68.4 µM (inactive) with A498; > 100 µM (inactive) in the experiment on NCI-H23; 22 µM (inactive) in the experiment on MOLT-4; > 100 µM (inactive) in the experiment with SW-620; > 100 µM (inactive) with UACC-257. Besides, the GI50 is > 100 µM (inactive) with UO-31; > 100 µM (inactive) in the experiment with OVCAR-4; 91.6 µM (inactive) with NCI-H226; > 100 µM (inactive) in the experiment with OVCAR-8; > 100 µM (inactive) with EKVX; > 100 µM (inactive) in the experiment with NCI-H522. For the same compound, the GI50 in the experiment on ACHN was > 100 µM (inactive); in the experiment with Hs-578T it was 74 µM (inactive); with NCI-H460 it was 42.8 µM (inactive); in the experiment with U-251, 64 µM (inactive); in the experiment on NCI/ADR-RES it was > 100 µM (inactive); with 786-0 it was > 100 µM (inactive). In addition, the GI50 in the experiment on DU-145 was > 100 µM (inactive).
With `O=C1CSC(c2ccc(Cl)cc2)N1c1ccc(-c2ccc(-n3c(-c4ccccc4)nc4ccccc4c3=O)cc2)cc1` (stereo not given), the GI50 in the experiment with HCT-116 was 24.8 µM (inactive); in the experiment with A498 it was 51.2 µM (inactive); in the experiment with NCI-H23 it was 34.1 µM (inactive); in the experiment with MOLT-4, 17.7 µM (inactive); with SF-539, 24.1 µM (inactive); in the experiment on SW-620, 11.8 µM (inactive). Moreover, the GI50 in the experiment on UACC-257 was > 100 µM (inactive); in the experiment with UO-31, 10.6 µM (inactive); with OVCAR-4, 19.3 µM (inactive); in the experiment on OVCAR-8, 54.8 µM (inactive); in the experiment on EKVX it was 56.9 µM (inactive); with NCI-H522, 25.2 µM (inactive). The GI50 with ACHN is 58.6 µM (inactive); in the experiment on Hs-578T, 28.8 µM (inactive); with NCI-H460, 67.1 µM (inactive); with U-251, 21.8 µM (inactive); in the experiment on NCI/ADR-RES it was 20 µM (inactive); in the experiment with 786-0 it was 27.4 µM (inactive). The GI50 with DU-145 is 49.1 µM (inactive).
For `CN(C)CCCNc1ncnc2[nH]cnc12`, the GI50 with HCT-116, in the experiment with A498, in the experiment on NCI-H23, in the experiment with MOLT-4, in the experiment with SW-620 and with UO-31 was > 100 µM (inactive) in each case. For the same compound, the GI50 in the experiment with OVCAR-4, with NCI-H226, in the experiment on OVCAR-8, in the experiment on EKVX, in the experiment with NCI-H522 and in the experiment with ACHN was > 100 µM (inactive) each time. In addition, the GI50 in the experiment with Hs-578T, with NCI-H460, in the experiment with U-251, in the experiment with NCI/ADR-RES, in the experiment on 786-0 and in the experiment on DU-145 was > 100 µM (inactive) each time.
With `COC(=O)c1ccccc1C1CN=NC12Cc1c(ccc3c1CCC3)C2=O` (stereo not given), the GI50 is 43.2 µM (inactive) with HCT-116; 66.2 µM (inactive) with NCI-H23; 30.5 µM (inactive) with MOLT-4; > 100 µM (inactive) with SF-539; 65.3 µM (inactive) in the experiment on SW-620; 15.7 µM (inactive) in the experiment with UACC-257. Also, the GI50 with UO-31 is 80.5 µM (inactive); in the experiment on OVCAR-4, 45.2 µM (inactive); in the experiment on NCI-H226, 41.5 µM (inactive); in the experiment on OVCAR-8 it was 92.5 µM (inactive); in the experiment with EKVX, 45.9 µM (inactive); in the experiment on NCI-H522, 0.635 µM (active). The GI50 with ACHN is 72.4 µM (inactive); in the experiment on Hs-578T, 71.8 µM (inactive); with NCI-H460, > 100 µM (inactive); in the experiment on U-251, 41 µM (inactive); with NCI/ADR-RES, 31.1 µM (inactive); with 786-0, > 100 µM (inactive). Also, the GI50 in the experiment on DU-145 is > 100 µM (inactive).
